{"source": "patent US11111500B2", "about": "“Mutated protoporphyrinogen IX oxidase (PPX) genes” (CIBUS US LLC, priority 2010, dated 2021)", "key": {"[1]": {"tested_on": "potato plastidal PPX", "assay": "Tolerance to saflufenacil of HemG mutant E. coli complemented with potato plastidal PPX (plate based selection, colony count)", "type": "cell-based, Solanum tuberosum", "excerpt": "StcPPX1, less its chloroplast transit peptide was cloned from cDNA into Cibus' proprietary functional screening vector. This vector may be used both for functional screening, and for GRON QC. The potato PPX genes were used to complement the HemG mutant strain of E. coli, which lacks a functional HemG gene, a bacterial homolog of PPX. Without a complementing gene, the media must be supplemented with hematin for E. coli growth.\nIn order to assess mutations that confer tolerance to PPX inhibitors such as Chateau (flumioxazin-Valent/Sumitomo), Naja (diphenylether—MAI) or Kixor (saflufenacil—BASF). Pure active ingredients for the PPX inhibiting herbicides Chateau (flumioxazin—Valent/Sumitomo), Spartan (sulfentrazone—FMC) and Kixor/Sharpen (saflufenacil—BASF) were obtained. […] This was further refined, and 0.75 mM sulfentrazone was also used to select for tolerance. […] All potato mitochondrial PPX genes and alleles were tested for natural tolerance to sulfentrazone and flumioxazin, but none were tolerant.\nTolerance of all possible amino acid substitutions at each position displaying tolerance to sulfentrazone or flumioxazin were tested. Next, single amino acid substitutions were combined in all permutations and combinations to assess complementation and herbicide tolerance."}, "[2]": {"tested_on": "leaf disc explants of in vitro grown potato plants", "assay": "Leaf disk kill curve (callus formation in leaf disc explants)", "type": "cell-based", "settings": "solid Haberlach culture medium, 1% DMSO", "protocol": "Aimed at establish the concentration of sulfentrazone that will inhibit callus formation in leaf disc explants, leaf discs were punched with a sterile hole punch from 5 weeks old in vitro grown potato plants. The leaf discs were cultured in petri dishes containing solid Haberlach culture medium containing various concentrations of Sulfentrazone in a final concentration of 1% DMSO. Six leaf discs cultured at each herbicide concentration. Plates were sealed with micropore tape and incubated at room temperature (approximately 23° C.). In an initial experiment, 7.8 μM sulfentrazone, the lowest concentration tested in that experiment, was sufficient to stop callus formations and bleach all leaf discs within 20 days. […] Similar leaf disc kill curve experiments were performed using saflufenacil where 0.5 μM of this herbicide was sufficient to inhibit callus formation in almost all leaf discs after 20 days."}}}
{"smiles": "CC(C)N(C)S(=O)(=O)NC(=O)c1cc(-n2c(=O)cc(C(F)(F)F)n(C)c2=O)c(F)cc1Cl", "note": "[saflufenacil]", "values": [{"measurement": "saflufenacil concentration with no growth of the wildtype construct", "setting": "[1]", "value": 0.3, "unit": "mM"}, {"measurement": "concentration sufficient to inhibit callus formation in almost all leaf discs after 20 days", "setting": "[2]", "value": 0.5, "unit": "µM"}]}
